Consider four molecules from paper PMC10092844, “Inhibition profile of trifludimoxazin towards PPO2 target site mutations” (Pest Management Science, 2022).

Experiment [1] has as its target T1, PPO2 R128C ΔG210 in Escherichia coli hemG (Amaranthus tuberculatus, UniProt Q0NZW9, DEL210/R128C, cells depend on it).
T1 sequence (Q0NZW9 with tags, fused parts or gaps R128C/DEL210): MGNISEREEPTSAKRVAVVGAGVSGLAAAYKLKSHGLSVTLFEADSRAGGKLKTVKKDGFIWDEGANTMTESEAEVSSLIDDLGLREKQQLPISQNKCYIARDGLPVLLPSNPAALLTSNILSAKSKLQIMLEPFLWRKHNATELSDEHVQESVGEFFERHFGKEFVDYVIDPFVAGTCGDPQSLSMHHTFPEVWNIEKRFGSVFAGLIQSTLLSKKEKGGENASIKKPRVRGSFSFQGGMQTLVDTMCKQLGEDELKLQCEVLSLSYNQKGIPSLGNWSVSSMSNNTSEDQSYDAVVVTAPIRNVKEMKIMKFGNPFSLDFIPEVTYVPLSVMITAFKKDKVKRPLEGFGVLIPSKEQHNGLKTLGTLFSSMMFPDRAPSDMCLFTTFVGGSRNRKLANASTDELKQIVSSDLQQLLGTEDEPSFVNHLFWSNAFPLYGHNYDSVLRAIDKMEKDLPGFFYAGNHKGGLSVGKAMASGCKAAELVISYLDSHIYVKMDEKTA
The class given is cell-based. The following applies: read-out: IC50 (E. coli hemG growth).

A further experiment concerns the target T2, PPO2 R128H ΔG210 (Amaranthus tuberculatus, UniProt Q0NZW9, DEL210/R128H).
T2 sequence (Q0NZW9 with tags, fused parts or gaps R128H/DEL210): T1 sequence (Q0NZW9 with tags, fused parts or gaps R128C/DEL210) with C98H
The experiment is described as follows: biochemical. It is filed as biochemical.

Experiment [2] addresses T3, PPO2 R128Q ΔG210 in Escherichia coli hemG (Amaranthus tuberculatus, UniProt Q0NZW9, DEL210-210/R128Q, cells depend on it).
T3 sequence (Q0NZW9 with tags, fused parts or gaps R128Q/DEL210-210): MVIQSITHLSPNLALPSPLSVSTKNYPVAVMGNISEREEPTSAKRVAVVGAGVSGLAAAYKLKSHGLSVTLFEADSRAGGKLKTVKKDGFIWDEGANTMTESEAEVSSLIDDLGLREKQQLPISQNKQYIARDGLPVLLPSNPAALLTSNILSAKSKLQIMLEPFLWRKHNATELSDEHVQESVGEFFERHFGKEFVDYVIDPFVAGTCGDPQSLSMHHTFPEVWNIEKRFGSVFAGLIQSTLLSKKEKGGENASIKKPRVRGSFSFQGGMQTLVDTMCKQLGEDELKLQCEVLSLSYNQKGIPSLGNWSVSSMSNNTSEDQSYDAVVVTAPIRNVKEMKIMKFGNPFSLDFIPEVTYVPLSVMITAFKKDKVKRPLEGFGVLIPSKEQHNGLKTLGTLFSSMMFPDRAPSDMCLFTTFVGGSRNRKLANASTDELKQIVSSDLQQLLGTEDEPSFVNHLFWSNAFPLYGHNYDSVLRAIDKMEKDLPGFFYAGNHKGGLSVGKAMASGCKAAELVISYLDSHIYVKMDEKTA
The class given is cell-based. The following applies: read-out: IC50 (E. coli hemG growth).

The next experiment addresses T4, PPO2 R128M ΔG210 (Amaranthus tuberculatus, UniProt Q0NZW9, DEL210-210/R128M).
T4 sequence (Q0NZW9 with tags, fused parts or gaps R128M/DEL210-210): T1 sequence (Q0NZW9 with tags, fused parts or gaps R128C/DEL210) with C98M
The experiment in a line: biochemical. The class given is biochemical.

The target in a further experiment is T5, PPO2 ΔG210 (Amaranthus tuberculatus, UniProt Q0NZW9, DEL210-210).
T5 sequence (Q0NZW9 with tags, fused parts or gaps DEL210-210): T3 sequence (Q0NZW9 with tags, fused parts or gaps R128Q/DEL210-210) with Q128R
The class given is biochemical.

The next experiment has as its target PPO2 wild-type (Amaranthus tuberculatus, UniProt Q0NZW9). The experiment in a line: in vitro inhibition assay, recombinant PPO2 enzyme. The class given is biochemical.

Where a chain is given by its changes, count along the chain named.

Sequence of PPO2 wild-type (Q0NZW9 entry or part of it): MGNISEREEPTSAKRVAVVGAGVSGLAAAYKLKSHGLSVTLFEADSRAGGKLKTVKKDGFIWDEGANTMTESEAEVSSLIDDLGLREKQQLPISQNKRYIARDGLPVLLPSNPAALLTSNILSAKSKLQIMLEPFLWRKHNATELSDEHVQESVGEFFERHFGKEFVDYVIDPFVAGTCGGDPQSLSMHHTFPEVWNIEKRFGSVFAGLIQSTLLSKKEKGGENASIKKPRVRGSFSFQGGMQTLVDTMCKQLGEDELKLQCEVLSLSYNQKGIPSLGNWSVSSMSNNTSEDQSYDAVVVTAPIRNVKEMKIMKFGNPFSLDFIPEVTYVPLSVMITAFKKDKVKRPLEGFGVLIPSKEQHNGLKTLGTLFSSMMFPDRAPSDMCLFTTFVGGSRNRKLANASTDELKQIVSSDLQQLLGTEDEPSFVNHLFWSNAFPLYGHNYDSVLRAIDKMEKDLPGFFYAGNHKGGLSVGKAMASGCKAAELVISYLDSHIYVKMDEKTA

What is called IC50 is the concentration that inhibits the measured activity by half. For the molecule `CC(C)N(C)S(=O)(=O)NC(=O)c1cc(-n2c(=O)cc(C(F)(F)F)n(C)c2=O)c(F)cc1Cl` [Saflufenacil, saflufenacil], the IC50 was > 10 µM in experiment [1]; > 10 µM against PPO2 R128H ΔG210; > 10 µM in experiment [2]; > 10 µM against PPO2 R128M ΔG210; 2.04 µM on PPO2 ΔG210.
For the molecule `CS(=O)(=O)NC(=O)c1cc(Oc2ccc(C(F)(F)F)cc2Cl)ccc1[N+](=O)[O-]` [Fomesafen, fomesafen], the IC50 at PPO2 R128H ΔG210, against PPO2 R128M ΔG210 and against PPO2 ΔG210 was > 10 µM each time.
Consider `C#CCN1C(=O)C(F)(F)Oc2cc(F)c(-n3c(=O)n(C)c(=S)n(C)c3=O)cc21` [Trifludimoxazin, trifludimoxazin], for which the IC50 in experiment [1] is 0.0465 µM; against PPO2 R128H ΔG210, 0.0302 µM; in experiment [2], 0.00986 µM; on PPO2 R128M ΔG210 it was 0.182 µM; against PPO2 ΔG210 it was 0.00183 µM. For the same molecule, the Resistance factor at PPO2 wild-type is 1; at PPO2 R128H ΔG210, 123; on PPO2 R128M ΔG210 it was 743; on PPO2 ΔG210, 7.
For `CCOC(=O)C(C)OC(=O)c1cc(Oc2ccc(C(F)(F)F)cc2Cl)ccc1[N+](=O)[O-]` (stereo not shown) [Lactofen, lactofen], the IC50 in experiment [1] is > 10 µM; against PPO2 R128H ΔG210, 1.59 µM; in experiment [2], > 10 µM; against PPO2 R128M ΔG210 it was > 10 µM; at PPO2 ΔG210, 0.544 µM.
